Test results as given in patent publication US4689345A, “Oxygenated alkyl substituted bicyclo alkanes” (CBD Corporation, priority 1986, dated 1987).
Read-outs that look alike come from different tables or passages of the source.

How the values were obtained:
androgen receptor sites = target: T1, androgen receptor sites (Homo sapiens, UniProt P10275); experiment: Retarding collagen formation through blockage of androgen receptor sites; settings: Example 53
T1 construct: other tests of the document use human skin, keloid and fibroblasts with 3H-DHT
Description: Accordingly, to treat arteriosclerosis, an oral dosage unit formulation is produced which contains 2 mg of 2-(5-methoxyhept-1-yl)bicyclo [3.3.0]octan-7-one {hexahydro-4-(5-methoxyheptyl)-2(1H)-pentalenone}, which is delivered to a subject once every six hours.

estrogen receptors = experiment: Effect on estrogen receptors in breast capsule tissue; type: binding, human; settings: breast capsule / hard band tissue
Description: "Hard fibrous band" formation was retarded around breast implants following augmentation surgery.
The tissues were evaluated, with appropriate controls, for effects by the novel anti-androgen.

progesterone receptor [1] = experiment: Progesterone receptor inhibition, Torulopsis; type: binding
progesterone receptor [2] = type: binding; settings: Histoplasma
androgen receptor [3] = experiment: Androgen receptor inhibition, Blastomyces; type: binding
estrogen receptor [4] = experiment: Estrogen receptor inhibition, Saccharomyces cerevisiae strains; settings: DHT:anti-androgen 1:1,000
estrogen receptor [5] = experiment: Estrogen receptor inhibition, Cryptococci; type: binding
progesterone receptor [6] = experiment: Progesterone receptor inhibition, Coccodia; type: binding
androgen receptor [7] = experiment: Androgen receptor inhibition, Saccharomyces cerevisiae strains; settings: DHT:anti-androgen 1:1,000

T1 sequence (P10275 whole entry): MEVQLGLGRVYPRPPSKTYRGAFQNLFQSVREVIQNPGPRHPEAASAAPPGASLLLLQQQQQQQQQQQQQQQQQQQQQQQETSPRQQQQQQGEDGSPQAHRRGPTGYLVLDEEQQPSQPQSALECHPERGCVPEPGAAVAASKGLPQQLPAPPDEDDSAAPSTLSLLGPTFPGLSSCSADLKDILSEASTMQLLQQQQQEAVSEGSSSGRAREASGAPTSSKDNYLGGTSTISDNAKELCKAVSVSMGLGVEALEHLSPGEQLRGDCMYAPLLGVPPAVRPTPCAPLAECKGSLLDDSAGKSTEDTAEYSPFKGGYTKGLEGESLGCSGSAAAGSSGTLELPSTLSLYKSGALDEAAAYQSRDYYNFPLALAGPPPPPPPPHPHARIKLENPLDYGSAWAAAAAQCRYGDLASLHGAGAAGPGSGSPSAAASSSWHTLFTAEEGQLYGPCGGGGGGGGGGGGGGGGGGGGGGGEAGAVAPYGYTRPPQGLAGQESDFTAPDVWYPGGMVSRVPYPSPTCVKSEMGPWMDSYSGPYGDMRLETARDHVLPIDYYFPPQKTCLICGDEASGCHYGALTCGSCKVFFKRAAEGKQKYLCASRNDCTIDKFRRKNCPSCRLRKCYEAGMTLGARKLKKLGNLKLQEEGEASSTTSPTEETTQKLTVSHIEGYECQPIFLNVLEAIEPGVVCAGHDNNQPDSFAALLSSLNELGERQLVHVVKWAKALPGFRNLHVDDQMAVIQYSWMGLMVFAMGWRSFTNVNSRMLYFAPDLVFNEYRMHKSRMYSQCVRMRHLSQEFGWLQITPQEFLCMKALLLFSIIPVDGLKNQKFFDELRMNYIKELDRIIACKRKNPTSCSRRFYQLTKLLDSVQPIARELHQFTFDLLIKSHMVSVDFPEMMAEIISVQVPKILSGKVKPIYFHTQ

CCC(CCCCC1CCC2CC(=O)CC12)OC (stereo not shown) [Compound V, 2-(5-Methoxyhept-1-yl)bicyclo[3.3.0]octan-7-one]
retarding collagen formation through blockage of androgen receptor sites (androgen receptor sites): excellent results in retarding collagen formation through blockage of androgen receptor sites
effect on estrogen receptors (estrogen receptors): without any significant effects
effect on estrogen receptors (estrogen receptors; listed as 2-(5-methoxyhept-1-yl)bicyclo[3.3.0]octan-7-one): no significant effects

CCC(O)CCCCC1CCC2CC(=O)CC12 (stereo not shown) [Compound IV]
% Progesterone Receptor Inhibition (progesterone receptor [1]): 6%
% Progesterone Receptor Inhibition (progesterone receptor [2]): 0%
% Androgen Receptor Inhibition (androgen receptor [3]): 49%
% Estrogen Receptor Inhibition (estrogen receptor [4]; strain 1): 0%
% Estrogen Receptor Inhibition (estrogen receptor [4]; strain 2): 0%
% Estrogen Receptor Inhibition (estrogen receptor [4]; strain 3): 0%
% Estrogen Receptor Inhibition (estrogen receptor [4]; strain 4): 0%
% Estrogen Receptor Inhibition (estrogen receptor [4]; strain 5): 0%
% Estrogen Receptor Inhibition (estrogen receptor [4]; strain 6): 0%
% Estrogen Receptor Inhibition (estrogen receptor [4]; strain 7): 0%
% Estrogen Receptor Inhibition (estrogen receptor [5]): 0%
% Progesterone Receptor Inhibition (progesterone receptor [6]): 4%
% Androgen Receptor Inhibition (androgen receptor [7]; strain 1): 16%
% Androgen Receptor Inhibition (androgen receptor [7]; strain 2): 37%
% Androgen Receptor Inhibition (androgen receptor [7]; strain 3): 92%
% Androgen Receptor Inhibition (androgen receptor [7]; strain 4): 76%
% Androgen Receptor Inhibition (androgen receptor [7]; strain 5): 39%
% Androgen Receptor Inhibition (androgen receptor [7]; strain 6): 59%
% Androgen Receptor Inhibition (androgen receptor [7]; strain 7): 87%
